Assay results: US11130756B2, “[1,2,4]Triazolo[4,3-A]pyridinyl substituted indole compounds” (BRISTOL-MYERS SQUIBB COMPANY, priority 2017, dated 2021)

Assays:
Format in all cases: cell-based
human TLR8 = biological target: T1, human TLR8 (Homo sapiens, UniProt Q9NR97); assay: TLR8 inhibition reporter assay (HEK-Blue, SEAP); settings: HEK-Blue cells overexpressing human TLR8, R848 15.9 μM, 22 hour incubation
T1 construct: host or cells: HEK-Blue cells
T1 sequence (Q9NR97 27-1041): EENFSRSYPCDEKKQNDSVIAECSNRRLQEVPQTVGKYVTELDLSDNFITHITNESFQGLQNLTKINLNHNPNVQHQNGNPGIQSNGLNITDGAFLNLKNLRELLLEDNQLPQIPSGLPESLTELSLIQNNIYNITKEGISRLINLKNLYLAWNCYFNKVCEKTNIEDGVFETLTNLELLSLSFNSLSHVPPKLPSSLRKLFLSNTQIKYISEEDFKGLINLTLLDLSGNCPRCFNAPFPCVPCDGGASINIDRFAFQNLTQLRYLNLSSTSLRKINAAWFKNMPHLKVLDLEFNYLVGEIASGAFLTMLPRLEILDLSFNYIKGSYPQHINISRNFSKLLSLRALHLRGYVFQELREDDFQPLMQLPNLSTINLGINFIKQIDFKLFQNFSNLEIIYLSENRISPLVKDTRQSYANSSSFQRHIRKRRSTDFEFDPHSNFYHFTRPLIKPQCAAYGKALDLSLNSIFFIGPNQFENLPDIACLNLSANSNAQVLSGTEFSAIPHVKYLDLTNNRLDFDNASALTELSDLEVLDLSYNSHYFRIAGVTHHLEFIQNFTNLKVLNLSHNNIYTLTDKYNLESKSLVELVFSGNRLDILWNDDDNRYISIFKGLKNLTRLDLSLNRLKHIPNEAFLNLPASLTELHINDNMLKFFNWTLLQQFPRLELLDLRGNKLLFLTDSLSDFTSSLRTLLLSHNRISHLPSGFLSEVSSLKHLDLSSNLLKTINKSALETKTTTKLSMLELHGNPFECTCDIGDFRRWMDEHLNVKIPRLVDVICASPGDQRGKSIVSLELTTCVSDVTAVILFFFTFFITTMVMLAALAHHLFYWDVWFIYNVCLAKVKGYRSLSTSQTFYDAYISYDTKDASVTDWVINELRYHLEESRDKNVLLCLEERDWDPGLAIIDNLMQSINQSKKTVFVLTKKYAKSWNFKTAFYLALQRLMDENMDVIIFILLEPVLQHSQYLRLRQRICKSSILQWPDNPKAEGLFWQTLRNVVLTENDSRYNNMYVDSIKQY
Procedure, shortened: (§1)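 Dose–response from 0.05 nM to 50 μM was run in HEK-Blue human TLR7, TLR8 and TLR9 reporter cells. After 30 min at room temperature with compound, ligand was added (TLR7 gardiquimod 7.5 μM; TLR8 R848 15.9 μM; TLR9 ODN2006 5 nM) and SEAP measured next day, at 22 h.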

human TLR7 = biological target: T2, human TLR7 (Homo sapiens, UniProt Q9NYK1); assay: TLR7 inhibition reporter assay (HEK-Blue, SEAP); settings: HEK-Blue cells overexpressing human TLR7, gardiquimod 7.5 μM, 22 hour incubation
T2 construct: host or cells: HEK-Blue cells
T2 sequence (Q9NYK1 27-1049): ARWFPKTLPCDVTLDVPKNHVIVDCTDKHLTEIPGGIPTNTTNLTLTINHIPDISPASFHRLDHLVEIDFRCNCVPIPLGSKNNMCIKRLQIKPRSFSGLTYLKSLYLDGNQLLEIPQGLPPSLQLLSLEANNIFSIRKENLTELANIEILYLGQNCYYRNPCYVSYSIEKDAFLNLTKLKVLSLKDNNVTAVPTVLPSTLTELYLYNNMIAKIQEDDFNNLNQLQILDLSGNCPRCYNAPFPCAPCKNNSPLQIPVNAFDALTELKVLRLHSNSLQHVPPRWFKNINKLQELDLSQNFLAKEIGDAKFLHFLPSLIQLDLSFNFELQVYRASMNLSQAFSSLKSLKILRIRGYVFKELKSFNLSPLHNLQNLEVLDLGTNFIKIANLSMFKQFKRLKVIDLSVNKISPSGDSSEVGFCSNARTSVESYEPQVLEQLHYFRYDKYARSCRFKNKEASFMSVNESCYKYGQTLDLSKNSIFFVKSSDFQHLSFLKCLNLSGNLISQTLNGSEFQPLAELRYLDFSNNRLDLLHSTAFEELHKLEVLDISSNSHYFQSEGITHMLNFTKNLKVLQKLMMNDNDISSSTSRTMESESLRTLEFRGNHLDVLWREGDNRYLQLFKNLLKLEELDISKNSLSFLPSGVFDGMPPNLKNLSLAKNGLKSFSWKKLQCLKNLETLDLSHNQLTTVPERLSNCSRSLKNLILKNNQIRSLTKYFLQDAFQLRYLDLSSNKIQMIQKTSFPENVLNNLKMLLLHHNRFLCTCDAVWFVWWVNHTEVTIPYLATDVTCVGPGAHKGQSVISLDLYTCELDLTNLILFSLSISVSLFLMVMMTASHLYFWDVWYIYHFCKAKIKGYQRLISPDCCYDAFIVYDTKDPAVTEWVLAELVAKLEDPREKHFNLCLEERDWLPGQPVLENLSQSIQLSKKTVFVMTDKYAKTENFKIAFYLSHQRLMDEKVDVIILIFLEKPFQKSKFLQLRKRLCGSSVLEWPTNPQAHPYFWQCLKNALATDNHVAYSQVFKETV
Procedure, shortened: as §1

human TLR9 = biological target: T3, human TLR9 (Homo sapiens, UniProt Q9NR96); assay: TLR9 inhibition reporter assay (HEK-Blue, SEAP); settings: HEK-Blue cells overexpressing human TLR9, ODN2006 5 nM, 22 hour incubation
T3 construct: host or cells: HEK-Blue cells
T3 sequence (Q9NR96 26-1032): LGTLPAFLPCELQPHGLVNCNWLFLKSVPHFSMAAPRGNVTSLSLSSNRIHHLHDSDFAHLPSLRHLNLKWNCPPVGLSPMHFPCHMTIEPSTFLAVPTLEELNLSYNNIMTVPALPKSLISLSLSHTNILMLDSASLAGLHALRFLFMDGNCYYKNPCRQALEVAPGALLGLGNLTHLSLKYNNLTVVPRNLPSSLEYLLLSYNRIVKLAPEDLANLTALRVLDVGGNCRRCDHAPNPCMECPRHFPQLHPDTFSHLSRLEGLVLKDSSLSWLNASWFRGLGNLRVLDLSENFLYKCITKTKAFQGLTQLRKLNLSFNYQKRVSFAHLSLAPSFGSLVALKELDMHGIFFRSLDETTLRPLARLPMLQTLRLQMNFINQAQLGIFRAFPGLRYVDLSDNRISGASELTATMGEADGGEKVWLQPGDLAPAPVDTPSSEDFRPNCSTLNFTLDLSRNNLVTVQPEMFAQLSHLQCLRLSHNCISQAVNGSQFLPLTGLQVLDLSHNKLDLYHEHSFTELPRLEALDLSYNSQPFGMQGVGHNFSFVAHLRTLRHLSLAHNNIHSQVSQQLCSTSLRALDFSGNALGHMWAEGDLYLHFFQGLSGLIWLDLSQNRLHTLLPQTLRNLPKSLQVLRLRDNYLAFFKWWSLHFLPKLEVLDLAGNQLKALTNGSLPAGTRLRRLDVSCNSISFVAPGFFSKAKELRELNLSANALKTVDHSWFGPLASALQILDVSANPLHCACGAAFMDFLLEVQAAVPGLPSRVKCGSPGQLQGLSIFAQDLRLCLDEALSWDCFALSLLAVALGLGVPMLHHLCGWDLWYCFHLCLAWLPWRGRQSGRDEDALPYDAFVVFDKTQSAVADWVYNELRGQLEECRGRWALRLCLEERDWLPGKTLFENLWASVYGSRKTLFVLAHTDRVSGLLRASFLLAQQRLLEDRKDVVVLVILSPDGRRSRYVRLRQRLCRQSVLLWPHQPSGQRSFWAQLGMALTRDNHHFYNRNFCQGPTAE
Procedure, shortened: as §1

Structure (SMILES)	IC50 (human TLR8)	IC50 (human TLR7)	IC50 (human TLR9)
Cc1nnc2ccc(-c3[nH]c4ccc(C5CCN(C6COC6)CC5)cc4c3C(C)C)cn12 [Example 67, 6-(3-isopropyl-5-(1-(oxetan-3-yl)piperidin-4-yl)-1H-indol-2-yl)-3-methyl-[1,2,4]triazolo[4,3-a]pyridine]	16.6 nM	60.3 nM	10100 nM
Cc1cc2nncn2cc1-c1[nH]c2ccc(C3CCN(C4CCOCC4)CC3)cc2c1C(C)C [Example 68, 6-(3-isopropyl-5-(1-(tetrahydro-2H-pyran-4-yl)piperidin-4-yl)-1H-indol-2-yl)-7-methyl-[1,2,4]triazolo[4,3-a] pyridine]	139 nM	20.7 nM	1250 nM
Cc1cc(-c2[nH]c3ccc(C4CCN(C5CCOCC5)CC4)cc3c2C(C)C)cn2cnnc12 [Example 69, 6-(3-isopropyl-5-(1-(tetrahydro-2H-pyran-4-yl)piperidin-4-yl)-1H-indol-2-yl)-8-methyl-[1,2,4]triazolo[4,3-a]pyridine]	3 nM	0.6 nM	1040 nM
Cc1c(-c2[nH]c3ccc(C4CCN(C5CCOCC5)CC4)cc3c2C(C)C)ccc2nncn12 [Example 70, 6-(3-isopropyl-5-(1-(tetrahydro-2H-pyran-4-yl)piperidin-4-yl)-1H-indol-2-yl)-5-methyl-[1,2,4]triazolo[4,3-a]pyridine]	10.8 nM	83.5 nM	1070 nM
Cc1cc(-c2[nH]c3ccc(C4CCN(Cc5ccn(C)n5)CC4)cc3c2C(C)C)cn2c(C)nnc12 [Example 71, 6-(3-isopropyl-5-(1-((1-methyl-1H-pyrazol-3-yl)methyl)piperidin-4-yl)-1H-indol-2-yl)-3,8-dimethyl-[1,2,4]triazolo[4,3-a]pyridine]	1.8 nM	12.7 nM	1130 nM
Cc1cc(-c2[nH]c3ccc(C4CCN(C5COC5)CC4)cc3c2C(C)C)cn2c(C)nnc12 [Example 72, 6-(3-isopropyl-5-(1-(oxetan-3-yl)piperidin-4-yl)-1H-indol-2-yl)-3,8-dimethyl-[1,2,4]triazolo[4,3-a]pyridine]	11.7 nM	11.8 nM	7870 nM
Cc1cc(-c2[nH]c3ccc(C4CCN(C5CCOCC5)CC4)cc3c2C(C)C)cn2c(C)nnc12 [Example 73, 6-(3-isopropyl-5-(1-(tetrahydro-2H-pyran-4-yl)piperidin-4-yl)-1H-indol-2-yl)-3,8-dimethyl-[1,2,4]triazolo [4,3-a]pyridine]	1.9 nM	20.4 nM	562 nM
Cc1cc(-c2[nH]c3ccc(C4CCN(Cc5ccn(C)n5)CC4)cc3c2C(C)C)cn2cnnc12 [Example 74, 6-(3-isopropyl-5-(1-((1-methyl-1H-pyrazol-3-yl)methyl)piperidin-4-yl)-1H-indol-2-yl)-8-methyl-[1,2,4]triazolo[4,3-a]pyridine]	1.7 nM	1.2 nM	908 nM
Cc1c(-c2[nH]c3ccc(C4CCN(C5COC5)CC4)cc3c2C(C)C)cn2cnnc2c1C [Example 75, 6-(3-isopropyl-5-(1-(oxetan-3-yl)piperidin-4-yl)-1H-indol-2-yl)-7,8-dimethyl-[1,2,4]triazolo[4,3-a]pyridine]	21.7 nM	3.3 nM	23800 nM
Cc1cc(-c2[nH]c3ccc(C4CCN(C5COC5)CC4)cc3c2C(C)C)c(C)n2cnnc12 [Example 76, 6-(3-isopropyl-5-(1-(oxetan-3-yl)piperidin-4-yl)-1H-indol-2-yl)-5,8-dimethyl-[1,2,4]triazolo[4,3-a]pyridine]	13.1 nM	106 nM	16100 nM
Cc1cc(-c2[nH]c3ccc(C4CCN(C5CCOCC5)CC4)cc3c2C(C)C)c(C)n2cnnc12 [Example 77, 6-(3-isopropyl-5-(1-(tetrahydro-2H-pyran-4-yl)piperidin-4-yl)-1H-indol-2-yl)-5,8-dimethyl-[1,2,4]triazolo[4,3-a]pyridine]	3.6 nM	55.9 nM	4190 nM
Cc1c(-c2[nH]c3ccc(C4CCN(C5CCOCC5)CC4)cc3c2C(C)C)cn2cnnc2c1C [Example 78, 6-(3-isopropyl-5-(1-(tetrahydro-2H-pyran-4-yl)piperidin-4-yl)-1H-indol-2-yl)-7,8-dimethyl-[1,2,4]triazolo[4,3-a]pyridine]	4.6 nM	1.3 nM	1780 nM
Cc1c(-c2[nH]c3ccc(C4CCN(CC5(C)COC5)CC4)cc3c2C(C)C)cn2cnnc2c1C [Example 79, 6-(3-isopropyl-5-(1-((3-methyloxetan-3-yl)methyl)piperidin-4-yl)-1H-indol-2-yl)-7,8-dimethyl-[1,2,4]triazolo[4,3-a]pyridine]	2 nM	1.1 nM	3530 nM
Cc1c(-c2[nH]c3ccc(C4CCN(CC5(C)COC5)CC4)cc3c2C(C)C)cn2cnnc2c1Cl [Example 80, 8-chloro-6-(3-isopropyl-5-(1-((3-methyloxetan-3-yl)methyl)piperidin-4-yl)-1H-indol-2-yl)-7-methyl-[1,2,4]triazolo[4,3-a)pyridine]	5.8 nM	2.3 nM	4550 nM
